# Test results published in patent publication US10519138B2, “Modulators of SOCE, compositions, and uses thereof” (Università degli Studi del Piemonte Orientale “Amedeo …, priority 2016, dated 2019).
# Entries after “also recorded” stand apart in the source; their conditions may differ.
# Assays:
# [1] = tested on: Store Operated Calcium Entry (SOCE) in Jurkat cells; assay: Fura-2 single-cell Ca2+ measurement of tBHQ-induced SOCE in Jurkat cells; assay type: cell-based, human; details: Homo sapiens, SOCE modulation based on tBHQ-induced calcium influx
# Description: Immortalized line of human T lymphocyte Jurkat cells were achieved from ATCC (ATCC® TIB-152™, Rockville, Md., USA) and were cultured in Roswell Park Memorial Institute Medium (RPMI 1640; Sigma-Aldrich, Italy), supplemented with 10% heat-inactivated FBS (Gibco, Italy), 1-glutamine 50 mg/mL (Sigma-Aldrich, Italy), penicillin 10 U/mL and streptomycin […] (Sigma-Aldrich, Italy) at 37° C., under a 5% CO2 humidified atmosphere. For experiments, the cells were plated onto glass coverslips at concentrations of 6×10^4 per mL (24 mm diameter coverslips in 6 well plates).
# Compounds were also tested on Jurkat cells in single-cell analysis using Fura-2 AM on cover-slips. Jurkat cells were loaded with 5 μM Fura-2 AM in presence of 0.02% of Pluronic-127 (both from Life Technologies, Italy) and 1 μM sulfinpyrazone in Krebs-Ringer buffer (KRB, 135 mM NaCl, 5 mM KCl, 0.4 mM KH2PO4, 1 mM MgSO4, 5.5 mM glucose, 20 mM HEPES, pH 7.4) containing 2 mM CaCl2 (30 min, room temperature). Afterwards, cells were washed and incubated with KRB for other 30 min to allow de-esterification of Fura-2AM. To measure store operated calcium entry, changes in cytosolic Ca^2+ were monitored upon depletion of the intracellular Ca^2+ stores. Experiments were carried out prior to and during exposure of the cells to the Ca^2+-free solution. In the absence of Ca^2+, the intracellular Ca^2+ stores were depleted by inhibition of the vesicular Ca^2+ pump by 2,5-t-butylhydroquinone (tBHQ, 50 μM; Sigma-Aldrich, Italy). Re-addition of 2 mM Ca^2+ allowed assessing the SOCE. During the experiments the cover-slips were mounted into acquisition chamber and placed on the stage of a Leica DMI6000 epi-fluorescent microscope equipped with S Fluor ×40/1.3 objective. Fura-2 was excited by alternate 340 and 380 nm using a Polychrome IV mono-chromator (Till Photon-ics, Germany) and the probe emission light was filtered through 520/20 band-pass filter and collected by a cooled CCD camera (Hamamatsu, Japan). The fluorescence signals were acquired and processed using MetaFluor software (Molecular Device, Sun-Nyvale, C A, USA). To quantify the differences in the amplitudes of Ca^2+ transients the ratio values were normalized using the formula ΔF/F0 (referred to as normalized Fura-2 ratio, “Norm. Fura ratio”). The percentage of SOCE modulation for each of 15 compounds was determined based on value of tBHQ-induced calcium influx into Jurkat cells. Data were analysed using Microsoft Excel and GraphPad Prism.
# [2] = tested on: Store Operated Calcium Entry (SOCE) in BV-2 cells; assay: Fluo-4 fluorimetric assay of tBHQ-induced store operated calcium entry in BV-2 cells; assay type: cell-based, mouse
# Description: (A) BV-2 cells were plated in poly-d-lysine coated 24-well plate and incubated overnight. After 24 hours, cells were loaded with 2 μM Fluo-4 and placed in an extracellular solution containing 0 mM Ca^2+. Stores were depleted with 50 μM tBHQ and calcium influx was stimulated by the addition of 2 mM Ca^2+ alone (Ctrl), or in conbination with: compound with no activity (NM-3A), and compounds that positively (4-(1-(4-(3,5-bis(trifluoromethyl)-1H-pyrazol-1-yl)phenyl)-1H-1,2,3-triazol-4-yl)benzoic acid) and negatively (3-(1-(4-(4-(ethoxycarbonyl)-5-(trifluoromethyl)-1H-pyrazol-1-yl)phenyl)-1H-1,2,3-triazol-4-yl)benzoic acid) regulate SOCE. Calcium responses are expressed as changes in fluorescence intensity before and after the addition of selected modulators. (B) BV-2 cells were assayed for a calcium response to different concentrations of 3-(1-(4-(4-(ethoxycarbonyl)-5-(trifluoromethyl)-1H-pyrazol-1-yl)phenyl)-1H-1,2,3-triazol-4-yl)benzoic acid and 4-(1-(4-(3,5-bis(trifluoromethyl)-1H-pyrazol-1-yl)phenyl)-1H-1,2,3-triazol-4-yl)benzoic acid (0.1-0.3-1-3-10-30-100 μM) using Fluo-4 fluorimetric assay. Concentration-response curves represent the AUC % of both compounds as compared to positive control.
# Immortalized primary mouse microglial BV-2 cells were obtained from ATCC (ATCC® CRL-2540™, Rockville, Md., USA) and were cultured in Dulbecco's Modified Eagle's Medium (DMEM; Sigma-Aldrich, Italy), supplemented with 10% heat-inactivated FBS (Gibco, Italy), 1-glutamine 50 mg/mL (Sigma-Aldrich, Italy), penicillin 10 U/mL and streptomycin […] (Sigma-Aldrich, Italy) at 37° C., under a 5% CO2 humidified atmosphere. For experiments, the cells were plated 2×10^4 per ml in 24 well plates) or onto glass coverslips at concentrations of 4×10^4 per mL (24 mm diame-ter coverslips in 6 well plates).
# BV-2 cells were loaded with 5 μM Fluo-4 AM in presence of 0.02% of Pluronic-127 (both from Life Technologies, Italy) and 10 μM sulfinpyrazone in Krebs-Ringer buffer (KRB, 135 mM NaCl, 5 mM KCl, 0.4 mM KH2PO4, 1 mM MgSO4, 5.5 mM glucose, 20 mM HEPES, pH 7.4) containing 2 mM CaCl2 (30 min, room temperature). Subsequently, cells were washed and incubated with KRB for other 30 min to allow de-esterification of Fluo-4 AM. Experiments were carried out prior to and during exposure of the cells to the Ca^2+-free solution. In the absence of Ca^2+, the intracellular Ca^2+ stores were depleted by 2,5-t-butylhydroquinone (tBHQ, 50 μM; Sigma-Aldrich, Italy), a SERCA poison, and then calcium 2 mM was re-added to the extracellular solution. Fluorescence is then monitored sequentially for a second in each well for 600 seconds with excitation at 494 nm and an emission wavelength at 516 nm on the V3 Victor plate-reader (Perkin Elmer), generating time-curves for each well. Data were analysed using Microsoft Excel and GraphPad Prism.
# The percentage of SOCE inhibition for each compound was determined based on value of tBHQ-induced calcium influx into BV-2 cells (Table 2).
# Orai1 mutated proteins = assay: SOCE in HEK cells overexpressing wild-type or mutated Orai1 (Fura2-AM single cell analysis); assay type: cell-based, human; details: 10 μM
# Description: (§1) SOCE induced by tBHQ in wilde-type HEK cells or HEK cells overexpressing the indicated STIM1 (A) or Orai1 (B) proteins. Average traces of approx. 600 cells from 20 coverslips performed on 4 separate days for each condition.
# (§2) 3-(1-(4-(4-(ethoxycarbonyl)-5-(trifluoromethyl)-1H-pyrazol-1-yl)phenyl)-1H-1,2,3-triazol-4-yl)benzoic acid 10 μM impairs SOCE both in Wild-type and STIM1 (A) or Orai1 (B) mutated cells.
# (§3) HEK STIM1 c.326A>G p.H109R (A) and HEK Orai1 c.734C>T p.P245L (B) cells were assayed for a calcium response to different concentrations of 3-(1-(4-(4-(ethoxycarbonyl)-5-(trifluoromethyl)-1H-pyrazol-1-yl)phenyl)-1H-1,2,3-triazol-4-yl)benzoic acid (1-3-10-30-100 μM) using Fura2-AM single cell analysis. Concentration-response curves represent the AUC % of 3-(1-(4-(4-(ethoxycarbonyl)-5-(trifluoromethyl)-1H-pyrazol-1-yl)phenyl)-1H-1,2,3-triazol-4-yl)benzoic acid.
# (§4) Human embryonic kidney HEK cells were obtained from ATCC (ATCC® CRL-1573™, Rockville, Md., USA) and were cultured in Dulbecco's Modified Eagle's Medium (DMEM; Sigma-Aldrich, Italy), supplemented with 10% heat-inactivated FBS (Gibco, Italy), 1-glutamine 50 mg/mL (Sigma-Aldrich, Italy), penicillin 10 U/mL and streptomycin […] (Sigma-Aldrich, Italy) at 37° C., under a 5% CO2 humidified atmosphere. […]
# STIM1 mutated proteins = assay: SOCE in HEK cells overexpressing wild-type or mutated STIM1 (Fura2-AM single cell analysis); assay type: cell-based, human; details: 10 μM
# Description: as §1, §2, §3, §4
smiles,measurement,setting,value
"CCOC(=O)c1cnn(-c2ccc(-n3cc(-c4cccc(C(=O)O)c4)nn3)cc2)c1C(F)(F)F [3-(1-(4-(4-(ethoxycarbonyl)-5-(trifluoromethyl)-1H-pyrazol-1-yl)phenyl)-1H-1,2,3-triazol-4-yl)benzoic acid]",inhibition at 10 µM,[1],70.4%
same,"Regulation of SOCE (calcium response, representative traces FIG. 2A)","[2]; Fluo-4, 50 μM tBHQ, 2 mM Ca2+ re-addition",negatively
same,inhibition at 10 µM,"[2]; Mus musculus, 10 μM, SOCE inhibition based on tBHQ-induced calcium influx",45.3%
same,Effect on SOCE in wild-type and Orai1 mutated cells (FIG. 4B),Orai1 mutated proteins,impairs SOCE; also recorded: able to revert the over-activation
same,Effect on SOCE in wild-type and STIM1 mutated cells (FIG. 4A),STIM1 mutated proteins,impairs SOCE; also recorded: able to revert the over-activation
